{"source": "patent US5510340A", "about": "“Antihypercholesterolemic compounds and related pharmaceutical compositions and methods of use” (SRI International, priority 1992, dated 1996)", "key": {"Cholesterol Biosynthesis": {"tested_on": "Cholesterol Biosynthesis", "assay": "In Vivo Cholesterol Biosynthesis Inhibition in Rats with Oral Administration of Test Compounds (compound 13, gavage)", "parameters": "species or system Male Sprague-Dawley rats", "settings": "rat plasma, 7 days; for 14C-Acetate Incorporation / Cholesterol Levels, HDL / 14C-Acetate Incorporation, Inhibition: gavage; for 14C-Acetate Incorporation: control 1200 ± 95; for Cholesterol Levels, HDL / Cholesterol Levels, Total: mean ± S.E.; for Cholesterol Levels, HDL: control 32 ± 2.1; for 14C-Acetate Incorporation, Inhibition: vs control; for Cholesterol Levels, Total: three daily doses via gavage, control 77.6 ± 2.3", "procedure": "(b.) In Vivo Cholesterol Biosynthesis Inhibition in Rats with Oral Administration of Test Compounds:\nMale Sprague-Dawley rats weighing 120 to 150 g were used. The animals were placed on a cholesterol-free diet immediately upon arrival and housed in a room with a reverse light cycle. One week after they had adapted to the light cycle, the experiment was begun by gavaging the animals three times daily with various amounts of test compound 13 suspended in 1.0 mL of saline. The control group received 1.0 mL of saline alone. On the seventh day of the experiment, sodium 1-^14 C! acetate (20 μCi/rat) was injected intraperitoneally 30 min after the oral administration (gavage) of test compounds and 2 h before the mid-dark point in the diurnal cycle; 4 h after the ^14 C-acetate injection, the animals were killed and blood samples were collected after decapitation. Plasma was obtained by centrifuging blood in an EDTA-treated centrifuge tube at 3000 rpm for 10 min. Cholesterol synthesis was measured by determining the level of ^14 C-labeled nonsaponifiable lipid present in 1.0 mL of plasma; 1.0 mL of plasma was first mixed with 1.0 mL of saline, followed by 5.0 mL of 10% KOH in absolute ethanol. Samples were saponified at 75° C. for 1 h. After cooling, 44,000 dpm, 0.5 nmol of 1,2-^3 H! cholesterol was added to each sample as an internal standard for calculating recovery through the extraction procedure. Samples were extracted once with 5 mL of petroleum ether, and the organic phase was backwashed with 5 mL of saline. The extracts were dried on a nitrogen evaporator, and the residue was reconstituted into 0.5 mL of CHCl3 -MeOH (2:1). The 0.5-mL reconstituted samples were transferred into counting vials containing 2 mL of ethanol, and both ^3 H and ^14 C were counted in 10 mL of scintillation fluid. The ^3 H-cholesterol internal standard recovery value from each sample was used to correct each sample to 100% recovery of ^14 C-cholesterol. The total cholesterol level and HDL in each plasma sample was also measured. The comparison between test groups and the control group was evaluated for both cholesterol levels and ^14 C-acetate incorporation."}, "[1]": {"tested_on": "Cholesterol Levels in Plasma of Rats", "assay": "Assay for Lowering Cholesterol Levels in Rats Fed Drug-Containing Food Ad Libitum", "format": "in vivo, Male Sprague-Dawley rats", "settings": "rat plasma, mean ± S.E.", "procedure": "(d.) Assay for Lowering Cholesterol Levels in Rats Fed Drug-Containing Food Ad Libitum:\nMale Sprague-Dawley rats weighing 150 to 200 g were used for this experiment. The animals were divided into groups of six rats each. All groups were kept on a cholesterol-free diet throughout the entire experiment. This diet was prepared by adding the test compound in small portions (usually 100 mg) to 100 g of choleserol-free diet in a 1-liter glass separatory funnel with a stopper. The diet was thoroughly mixed after each addition of the test compound. The resulting diet was kept in a refrigerator at all times. Before feeding, the diet was allowed to warm to room temperature. The animals were housed individually in metabolic cages. All test groups were allowed free access to the cholesterol-free diet containing the proper doses of the test compound. A pair-fed group was assigned to each test group and allowed free access to the cholesterol-free diet only in the amount consumed by its corresponding counterpart on the previous day. The control group was allowed free access to the cholesterol-free diet with no restriction. The food consumption and body weights of all groups were recorded daily. Blood samples were taken from all groups on day 0 and every third or fourth day throughout the entire experiment. Plasma was obtained by drawing blood into EDTA-treated centrifuge tubes and centrifuging at 3000 rpm for 10 min. The total cholesterol level and HDL in each plasma sample were determined using a Gemini autoanalyzer."}, "[2]": {"tested_on": "Cholesterol Biosynthesis in CHO Cells", "assay": "In Vitro Assay for Inhibition of Cholesterol Biosynthesis in CHO Cells", "format": "cell-based, Chinese Hamster", "settings": "Cricetulus griseus, 14C-acetate incorporation into cholesterol, 16-18 h incubation with compound", "procedure": "Chinese Hamster ovary (CHO) cells were seeded at 1×10^5 cells per 60-mm Petri dish and incubated at 37° C. in F-12 medium supplemented with fetal calf serum (5%). After 24 h, the medium was aspirated and replaced with delipidated calf serum in F-12 medium containing the test compounds. At various concentrations, either ethanol or dimethyl sulfoxide was used to dissolve the test compounds to a final concentration of 0.1% in the cell medium. Controls contained the vehicle alone. After incubation for 16-18 h, ^14 C-acetate (20 μM final concentration) was added and incubation continued for 5.5 h. […] The cells were then scraped off the plates with a rubber policeman into saline (2 mL). An aliquot for protein was taken, and the remainder of the cell suspension was centrifuged at 800×g for 10 min. The supernatant was discarded and the pellet extracted by vortexing 15 s in chloroform:methanol (2 mL of 2:1). […] NaCl (0.4 mL) was added, vortexed, and centrifuged, and the top layer was discarded. A portion of the upper phase mixture of chloroform:methanol:water (0.4 mL of 3:48:47) was added and gently swirled to avoid mixing with the bottom layer. The resultant samples were centrifuged, and the top layer was discarded. The procedure was repeated before methanol was finally added to combine the two layers and the solvent was evaporated. Chloroform (200 μL) was added to the residue and an aliquot (150 μL) taken. To the aliquot was added cholesterol (40 μg in 20 μL), and the samples were concentrated. The lipids were dissolved in chloroform (50 μL) and spotted on silica gel G thin-layer chromatography plates. After development in hexane:ether:acetic acid (80:20:1), the ^14 C-cholesterol spot was located with iodine vapor and scraped into a scintillation vial, and the radioactivity was counted with a scintillation counter."}, "[3]": {"settings": "Day 0, cholesterol-free diet containing 0.2% inhibitor, control 29 ± 0.9"}, "[4]": {"settings": "Day 0, cholesterol-free diet containing 0.2% inhibitor, control 70 ± 1"}, "[5]": {"settings": "Day 4, cholesterol-free diet containing 0.2% inhibitor, control 28 ± 2"}, "[6]": {"settings": "Day 4, cholesterol-free diet containing 0.2% inhibitor, control 77 ± 2"}, "[7]": {"settings": "Day 7, cholesterol-free diet containing 0.2% inhibitor, control 26 ± 2"}, "[8]": {"settings": "Day 7, diet containing 0.2% inhibitor, control 76 ± 4, ^b significantly lower than Day 0 (P < 0.001), pair-fed (P < 0.005) and control (P < 0.001), ^c significantly lower than pair-fed (P < 0.02)"}, "[9]": {"settings": "Day 10, cholesterol-free diet containing 0.2% inhibitor, control 32 ± 1.5"}, "[10]": {"settings": "Day 10, cholesterol-free diet containing 0.2% inhibitor, control 81 ± 3"}}}
{"smiles": "CC(C)CCC[C@@H](C)[C@H]1Cc2nnc3c4c2[C@]1(C)CC[C@@H]4[C@@]1(C)CC[C@H](O)C[C@@H]1C3", "note": "[Compound 13, pyridazino 3',4',5',6':7,8,14,15!5α-cholestan-3β-ol]", "values": [{"measurement": "14C-Acetate Incorporation", "setting": "Cholesterol Biosynthesis; 0.16 mg/rat/day", "result": "696 ± 107", "unit": "cpm/ml"}, {"measurement": "Cholesterol Levels, HDL", "setting": "Cholesterol Biosynthesis; 0.16 mg/rat/day", "result": "44.0 ± 10.6", "unit": "Mg/100 ml"}, {"measurement": "14C-Acetate Incorporation, Inhibition", "setting": "Cholesterol Biosynthesis; 0.16 mg/rat/day", "result": 42, "unit": "%"}, {"measurement": "Cholesterol Levels, Total", "setting": "Cholesterol Biosynthesis; 0.16 mg/rat/day", "result": "66.8 ± 3.4", "unit": "Mg/100 ml"}, {"measurement": "14C-Acetate Incorporation", "setting": "Cholesterol Biosynthesis; 0.33 mg/rat/day", "result": "510 ± 122", "unit": "cpm/ml"}, {"measurement": "Cholesterol Levels, HDL", "setting": "Cholesterol Biosynthesis; 0.33 mg/rat/day", "result": "27.6 ± 3.5", "unit": "Mg/100 ml"}, {"measurement": "14C-Acetate Incorporation, Inhibition", "setting": "Cholesterol Biosynthesis; 0.33 mg/rat/day", "result": 58, "unit": "%"}, {"measurement": "Cholesterol Levels, Total", "setting": "Cholesterol Biosynthesis; 0.33 mg/rat/day", "result": "62.6 ± 2.4", "unit": "Mg/100 ml"}, {"measurement": "14C-Acetate Incorporation", "setting": "Cholesterol Biosynthesis; 1.0 mg/rat/day", "result": "385 ± 47", "unit": "cpm/ml"}, {"measurement": "Cholesterol Levels, HDL", "setting": "Cholesterol Biosynthesis; 1.0 mg/rat/day", "result": "28.6 ± 1.9", "unit": "Mg/100 ml"}, {"measurement": "14C-Acetate Incorporation, Inhibition", "setting": "Cholesterol Biosynthesis; 1.0 mg/rat/day", "result": 68, "unit": "%"}, {"measurement": "Cholesterol Levels, Total", "setting": "Cholesterol Biosynthesis; 1.0 mg/rat/day", "result": "61.4 ± 3.0", "unit": "Mg/100 ml"}, {"measurement": "14C-Acetate Incorporation", "setting": "Cholesterol Biosynthesis; 3.0 mg/rat/day", "result": "383 ± 38", "unit": "cpm/ml"}, {"measurement": "Cholesterol Levels, HDL", "setting": "Cholesterol Biosynthesis; 3.0 mg/rat/day", "result": "28.8 ± 4.3", "unit": "Mg/100 ml"}, {"measurement": "14C-Acetate Incorporation, Inhibition", "setting": "Cholesterol Biosynthesis; 3.0 mg/rat/day", "result": 69, "unit": "%"}, {"measurement": "Cholesterol Levels, Total", "setting": "Cholesterol Biosynthesis; 3.0 mg/rat/day", "result": "60.8 ± 0.9", "unit": "Mg/100 ml"}, {"measurement": "14C-Acetate Incorporation", "setting": "Cholesterol Biosynthesis; 7.5 mg/rat/day", "result": "340 ± 50", "unit": "cpm/ml"}, {"measurement": "Cholesterol Levels, HDL", "setting": "Cholesterol Biosynthesis; 7.5 mg/rat/day", "result": "14.3 ± 0.33", "unit": "Mg/100 ml"}, {"measurement": "14C-Acetate Incorporation, Inhibition", "setting": "Cholesterol Biosynthesis; 7.5 mg/rat/day", "result": 72, "unit": "%"}, {"measurement": "Cholesterol Levels, Total", "setting": "Cholesterol Biosynthesis; 7.5 mg/rat/day", "result": "44.0 ± 1.0", "unit": "Mg/100 ml"}, {"measurement": "Cholesterol levels, LDL", "setting": "[1]; [3]", "result": "34 ± 1.8", "unit": "mg/100 mL"}, {"measurement": "Cholesterol Levels, Total", "setting": "[1]; [4]", "result": "74 ± 1", "unit": "mg/100 mL"}, {"measurement": "Cholesterol levels, LDL", "setting": "[1]; [5]", "result": "28 ± 2", "unit": "mg/100 mL"}, {"measurement": "Cholesterol Levels, Total", "setting": "[1]; [6]", "result": "62 ± 2", "unit": "mg/100 mL"}, {"measurement": "Cholesterol levels, LDL", "setting": "[1]; [7]", "result": "17 ± 3", "unit": "mg/100 mL"}, {"measurement": "Cholesterol Levels, Total", "setting": "[1]; [8]", "result": "46 ± 3", "unit": "mg/100 mL"}, {"measurement": "Cholesterol levels, LDL", "setting": "[1]; [9]", "result": "29 ± 2", "unit": "mg/100 mL"}, {"measurement": "Cholesterol Levels, Total", "setting": "[1]; [10]", "result": "47 ± 5", "unit": "mg/100 mL"}]}
{"smiles": "CC(C)CCC[C@@H](C)[C@H]1CC(=O)C2=C3CC[C@H]4C[C@@H](O)CC[C@]4(C)[C@H]3CC[C@@]21C", "note": "[Compound 27, 3β-Hydroxy-5α-cholest-8(14)-ene-15-one, reference compound]", "values": [{"measurement": "Cholesterol levels, LDL", "setting": "[1]; [3]", "result": "34 ± 2", "unit": "mg/100 mL"}, {"measurement": "Cholesterol Levels, Total", "setting": "[1]; [4]", "result": "74 ± 3", "unit": "mg/100 mL"}, {"measurement": "Cholesterol levels, LDL", "setting": "[1]; [5]", "result": "31 ± 2", "unit": "mg/100 mL"}, {"measurement": "Cholesterol Levels, Total", "setting": "[1]; [6]", "result": "69 ± 2", "unit": "mg/100 mL"}, {"measurement": "Cholesterol levels, LDL", "setting": "[1]; [7]", "result": "23 ± 2", "unit": "mg/100 mL"}, {"measurement": "Cholesterol Levels, Total", "setting": "[1]; [8]", "result": "48 ± 4", "unit": "mg/100 mL"}, {"measurement": "Cholesterol levels, LDL", "setting": "[1]; [9]", "result": "41 ± 1.5", "unit": "mg/100 mL"}, {"measurement": "Cholesterol Levels, Total", "setting": "[1]; [10]", "result": "66 ± 2", "unit": "mg/100 mL"}]}
{"smiles": "CC(C)CCC[C@@H](C)[C@H]1Cc2cnc3c4c2[C@]1(C)CC[C@@H]4[C@@]1(C)CC[C@H](O)C[C@@H]1C3", "note": "[drawing 39]", "values": [{"measurement": "IC50", "setting": "[2]", "result": 50, "unit": "nM"}]}
